Key:
[1] = Rat hepatic microsomal glutathione trapping assay; type: in vitro ADME; conditions: hepatic microsomal homogenate, glutathione as nucleophile
From the text: Assuming that reactive metabolites may play a role in clinical IDRs, minimizing the potential for oxidative bioactivation has been proposed as a means of improving the overall safety profile of compounds containing structural features associated with such reactivity. (see Baillie, Thomas A., Approaches to the Assessment of Stable and Chemically Reactive Drug Metabolites in Early Clinical Trials, Chemical Research in Toxicology, vol 22(2) 2009.) To this end, representative compounds of the present invention and related compounds are screened using a rat hepatic microsomal trapping assay, using glutathione as an endogenous nucleophile, to understand the potential for oxidative bioactivation of the thienyl moiety. […] Of the compounds tested, those wherein R^2a and R^2b are fluoro are found to not show glutathione conjugate formation.

[2] = target: T1, nociceptin/ORL1 receptors (Rattus norvegicus, UniProt P35370); test: In vivo receptor occupancy (LC/MS/MS, RO Tracer) in hypothalamus; conditions: for receptor occupancy at 3 mg/kg: oral 3 mg/kg dose after 6 hr.
T1 construct: rats are sacrificed by cervical dislocation and the hypothalamus is removed; from tissue; host or cells: rat hypothalamus (in vivo occupancy)
T1 sequence (P35370 whole entry): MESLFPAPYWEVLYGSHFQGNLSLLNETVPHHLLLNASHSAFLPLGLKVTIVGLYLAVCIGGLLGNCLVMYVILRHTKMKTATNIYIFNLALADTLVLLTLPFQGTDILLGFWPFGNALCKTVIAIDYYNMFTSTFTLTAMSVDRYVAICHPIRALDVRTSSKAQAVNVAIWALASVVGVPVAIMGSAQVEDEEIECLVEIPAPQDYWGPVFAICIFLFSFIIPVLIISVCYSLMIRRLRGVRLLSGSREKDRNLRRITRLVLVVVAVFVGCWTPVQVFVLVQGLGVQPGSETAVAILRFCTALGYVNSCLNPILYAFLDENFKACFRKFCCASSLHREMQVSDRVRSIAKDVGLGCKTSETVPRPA

[3] = system: wild type and ORL knockout mice; test: Blockade of fasting-induced hyperphagia in mice; type: in vivo, mouse
From the text: Blockade of fasting-induced hyperphagia in rats is an accepted model for hyperphagic eating disorders. […] Mice are individually housed a minimum of 3 days prior to the onset of testing to eliminate any effects of stress due to the change from group to individual housing. Three mice/genotype are randomly assigned to each treatment group on the test day. Pre-fast body weight measurements are taken, and food is then removed from cages overnight. Mice are fasted for approximately 15 hr. The next morning, the mice are given one of three doses of drug or vehicle via oral gavage 30 min. prior to gaining access to food. Drugs are dissolved in 20% Captisol dissolved in 25 mM phosphate buffer, pH 2.0. Measurements of body weight are taken immediately prior to drug treatment or 24 hr. after access to food is restored. […] Measurements of food intake are recorded 1 hr following access to food, as indicated, by weight of food remaining at 1 hr. It should be noted that food intake measured is during the light phase, a time during which mice are typically at rest and not normally eating. Following initial testing, mice are rested for 1 week with access to unlimited chow.

[4] = target: T2, cloned human ORL1 receptors (Homo sapiens, UniProt P41146); test: [3H]-OFQ/nociceptin receptor binding assay
T2 construct: expressed in transfected cells; host or cells: CHO cells (membranes)
T2 sequence (P41146 whole entry): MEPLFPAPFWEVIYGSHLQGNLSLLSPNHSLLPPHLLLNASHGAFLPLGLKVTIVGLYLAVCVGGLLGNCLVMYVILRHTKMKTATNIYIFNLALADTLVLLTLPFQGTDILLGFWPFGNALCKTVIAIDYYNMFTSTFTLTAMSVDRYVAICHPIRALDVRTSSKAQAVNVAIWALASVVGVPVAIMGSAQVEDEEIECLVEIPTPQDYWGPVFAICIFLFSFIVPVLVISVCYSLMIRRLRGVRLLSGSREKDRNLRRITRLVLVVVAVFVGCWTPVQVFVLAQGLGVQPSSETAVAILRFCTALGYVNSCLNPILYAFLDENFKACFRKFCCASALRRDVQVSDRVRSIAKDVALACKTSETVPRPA
Description: (§1) Radioligand binding assays are commonly used to determine the affinity (Ki) or potency of a compound to bind to a particular receptor or target protein. A filtration-based [3H]-OFQ/nociceptin receptor binding assay is developed based on previous assay formats (Ardati A, Henningsen R A, Higelin J, Reinscheid R K, Civelli O, Monsma F J Jr. Mol. Pharmacol. 1997 May; 51(5):816-24.) with minor modifications. [3H]-OFQ/nociceptin binding assays are carried out in deep-well 96-well plates. [^3H]OFQ (final assay concentration 0.2 nM) competition studies are carried out with 5-10 μg of membrane protein (isolated from Chinese hamster ovary cells (CHO cells) expressing cloned human ORL1 receptors) in a final assay volume of 0.5 mL of buffer containing 20 mM HEPES, pH 7.4, 5 mM MgCl2, 1 mM EGTA, 100 mM NaCl, 0.1% bovine serum albumin. Samples are incubated for 60 min. at room temperature, which is found to be optimal for competition assays. The assays are terminated by filtration through glass fiber filters (Wallac filtermat A) [pretreated with 0.3% polyethylenimine (Sigma) for 1 hr] on a Tometc cell harvester, and the filters are washed three times with 5 mL of ice-cold 50 mM Tris.HCl, pH 7.4. Filtermats are then dried and imbedded with Meltilex scintillant A and the radioactivity counted in a Wallac Microbeta scintillation counter. Specific binding is determined by displacement with 100 nM unlabeled nociceptin. Curves are plotted as the percent of specific binding and IC50 values are determined using a sigmoidal dose response curve with variable slope. K, values are calculated from the IC50 by the equation of Cheng and Prusoff (Cheng, Y. C., and Prusoff, W. H., Biochem. Pharmacol. 22, 3099-3108 (1973)) where Ki=IC50×(1+D×Kd^−1)^−1. Similarly, Ki for the mu, kappa and delta opioids, serotonin, adrenergic, and muscarinic receptors may be determined using membranes expressing the desired receptor and appropriate corresponding radioligand competitor molecules.

[5] = target: T3, cloned human ORL1/nociceptin receptors (Homo sapiens, UniProt P41146); test: Functional blockade of agonist-mediated G-protein activation, GTP-γ-[35S] binding; type: biochemical
T3 construct: expressed in transfected cells
T3 sequence (P41146 whole entry): as above
From the text: Agonist-mediated stimulation of G-protein coupled receptors results in the activation of membrane associated Gαβγ-protein heterotrimer complexes, and represents the first step in the transduction of extracellular signals to modification of intracellular pathways. The first step in activation of receptor-mediated activation of Gαβγ-proteins heterotrimer is the exchange of Gα subunit bound guanosine diphoshpate (GDP) for guanosine triphosphate (GTP). The binding of GTP to the Gα subunit causes dissociation of the heterotrimer subunits, Gβ and Gγ, resulting in the modulation of several intracellular signaling cascades. Measurement of receptor-mediated G-protein activation can be measured using the non-hydrolyzable radiolabeled analog of GTP, GTP-γ-[35S]. Utilizing this methodology, antagonist affinity (Kb) is measured in membranes expressing cloned human ORL1/nociceptin receptors using a GTP-γ-[35S] binding assay according to previously described protocols with minor modifications (DeLapp et al., J Pharmacol Exp Ther. 1999 May; 289(2):946-55; Ozaki et al., Eur J Pharmacol. 2000 Aug. 18; 402(1-2):45-53). Assays are conducted in a 200-μl volume with the following buffer composition: 100 mM NaCl, 20 mM HEPES, 5 mM MgCl2, 1 mM EDTA, 0.1% BSA, 3 μM GDP, 0.5 nM [^35S]GTPγS. ORL1 receptor membrane suspension is added at a concentration of 20 μg protein per well and receptor stimulation is achieved using 300 nM nociceptin/OFQ. Wheat germ agglutinin coated SPA beads (Amersham, Arlington Hts., Ill.) are added at 1 mg per well to detect membrane-bound [^35S]GTPγS. Plates are sealed and incubated for 2 hr. at room temperature. Plates are then placed at 4° C. overnight to allow the SPA beads to settle and then counted in a Wallac Microbeta. Specific [^35S]GTPγS binding is determined as the difference in CPM observed in the absence and presence of 10 μM unlabeled GTPγS. Data are plotted as the percent of specific [^35S]GTPγS bound. Curves are plotted as the percent of specific binding and IC50 values are determined using a sigmoidal dose response curve with variable slope. Antagonist affinity (Kb) is estimated according to DeLapp et al., 1999 using a modification of the equation of Cheng and Prusoff (1973) where Kb=IC50×(1+D×EC50^−1)^−1.

[6] = system: NIH-Swiss mice; 129S6 wild type and nociceptin/ORL1 receptor knockout mice; test: Forced-swim test in mice (mFST); type: in vivo, mouse
From the text: Forced-Swim Test in Mice (mFST) mFST is an established in vivo assay for antidepressant activity (Li et al. J Pharmacol Exp Ther. 319(1):254-9, 2006.). […] The mFST was used to evaluate potential antidepressant-like activity of novel nociceptin/ORL1 antagonists according to previously published methods (Li et al. J Pharmacol Exp Ther. 319(1):254-9, 2006.). Briefly, male NIH-Swiss mice (Harlan Sprague-Dawley, Indianapolis, Ind.) weighing between 25-30 g are used. Group housed animals are removed from the vivarium to the testing area in their own cages and allowed to adapt to the new environment for at least 1 hour before testing. Alternatively, male 129S6 wild type and nociceptin/ORL1 receptor knockout mice were used to confirm dependence of the response to compound was nociceptin/ORL1 receptor dependent. All compounds are prepared in 20% Captisol, 25 mM phosphate buffer, pH 2.0 on the day of use. Mice are placed in a cylinder (diameter: 10 cm; height: 25 cm) filled with 6 cm of water (22-25° C.) for 6 min. The duration of immobility during the last 4 min. of the 6 min. period of the test was scored. A mouse is recorded as immobile when floating motionless or making only those movements necessary to keep its head above water.

[7] = target: human ERG (hERG) K+ channel (Homo sapiens, UniProt Q12809); test: hERG channel [3H]astemizole binding assay
Chain of human ERG (hERG) K+ channel (Q12809 whole entry): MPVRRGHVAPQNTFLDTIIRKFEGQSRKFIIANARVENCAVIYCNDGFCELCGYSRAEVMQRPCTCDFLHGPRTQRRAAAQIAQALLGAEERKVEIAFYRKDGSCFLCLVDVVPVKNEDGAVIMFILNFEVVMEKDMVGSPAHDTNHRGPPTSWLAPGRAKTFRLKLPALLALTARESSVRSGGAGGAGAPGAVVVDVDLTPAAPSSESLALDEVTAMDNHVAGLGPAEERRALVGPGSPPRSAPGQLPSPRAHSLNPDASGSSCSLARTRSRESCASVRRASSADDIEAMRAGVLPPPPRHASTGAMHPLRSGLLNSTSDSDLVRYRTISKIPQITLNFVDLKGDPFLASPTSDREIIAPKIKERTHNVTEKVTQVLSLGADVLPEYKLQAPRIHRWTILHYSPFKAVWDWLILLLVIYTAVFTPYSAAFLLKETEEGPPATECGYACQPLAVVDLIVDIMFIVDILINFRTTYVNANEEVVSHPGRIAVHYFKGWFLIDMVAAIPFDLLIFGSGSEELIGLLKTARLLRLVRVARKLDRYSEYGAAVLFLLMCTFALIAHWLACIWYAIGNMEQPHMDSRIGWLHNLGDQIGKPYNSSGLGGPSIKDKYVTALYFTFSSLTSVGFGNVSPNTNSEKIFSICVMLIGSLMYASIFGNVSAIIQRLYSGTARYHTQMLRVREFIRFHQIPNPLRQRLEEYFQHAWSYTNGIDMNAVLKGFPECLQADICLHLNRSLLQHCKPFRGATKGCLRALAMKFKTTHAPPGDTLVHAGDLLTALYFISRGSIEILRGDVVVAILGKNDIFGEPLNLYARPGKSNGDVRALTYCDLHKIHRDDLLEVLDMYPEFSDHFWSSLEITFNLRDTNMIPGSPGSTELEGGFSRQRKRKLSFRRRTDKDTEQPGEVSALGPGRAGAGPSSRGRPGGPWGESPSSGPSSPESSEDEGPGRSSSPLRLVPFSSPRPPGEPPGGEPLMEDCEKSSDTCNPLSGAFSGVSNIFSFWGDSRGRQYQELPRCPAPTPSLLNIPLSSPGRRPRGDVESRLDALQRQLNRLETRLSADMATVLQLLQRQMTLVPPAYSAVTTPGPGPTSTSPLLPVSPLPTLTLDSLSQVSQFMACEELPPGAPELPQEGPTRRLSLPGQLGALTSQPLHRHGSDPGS
Description: Blockade of K^+-channel conductance in the heart is associated with cardiotoxicity in the form of QT-wave prolongation. The affinity (Ki) of the exemplified nociceptin receptor antagonists for the human ERG (hERG) K^+ channel is determined in HEK293 cells expressing cloned hERG using the hERG channel antagonist radioligand [3H]astemizole (2 nM final assay concentration) according to well known procedures (see for example Finlayson K, et al. (Eur J Pharmacol. 412(3):203-12, 2001) [3H]Astemizole binding assays are performed at the contract research company Cerep (Paris France) according to standard procedures.

[8] = target: Kappa Opioid (Homo sapiens, UniProt P41145); test: Radioligand binding selectivity; conditions: Kappa Opioid; read-out: Ki
Chain of Kappa Opioid (P41145 whole entry): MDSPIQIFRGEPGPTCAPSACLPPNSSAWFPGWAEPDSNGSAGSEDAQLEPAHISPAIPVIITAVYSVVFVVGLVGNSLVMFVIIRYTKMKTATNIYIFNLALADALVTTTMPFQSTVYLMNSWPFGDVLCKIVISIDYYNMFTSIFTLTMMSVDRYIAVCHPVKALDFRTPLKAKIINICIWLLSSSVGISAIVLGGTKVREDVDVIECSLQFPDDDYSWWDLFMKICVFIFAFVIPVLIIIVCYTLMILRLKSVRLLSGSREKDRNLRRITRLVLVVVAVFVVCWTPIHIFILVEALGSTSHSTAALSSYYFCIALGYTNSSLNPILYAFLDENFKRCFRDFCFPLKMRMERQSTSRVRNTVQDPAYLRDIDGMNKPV
Description: as §1

[9] = target: Mu Opioid (Homo sapiens, UniProt P35372); test: Radioligand binding selectivity; conditions: Mu Opioid; read-out: Ki
Chain of Mu Opioid (P35372 whole entry): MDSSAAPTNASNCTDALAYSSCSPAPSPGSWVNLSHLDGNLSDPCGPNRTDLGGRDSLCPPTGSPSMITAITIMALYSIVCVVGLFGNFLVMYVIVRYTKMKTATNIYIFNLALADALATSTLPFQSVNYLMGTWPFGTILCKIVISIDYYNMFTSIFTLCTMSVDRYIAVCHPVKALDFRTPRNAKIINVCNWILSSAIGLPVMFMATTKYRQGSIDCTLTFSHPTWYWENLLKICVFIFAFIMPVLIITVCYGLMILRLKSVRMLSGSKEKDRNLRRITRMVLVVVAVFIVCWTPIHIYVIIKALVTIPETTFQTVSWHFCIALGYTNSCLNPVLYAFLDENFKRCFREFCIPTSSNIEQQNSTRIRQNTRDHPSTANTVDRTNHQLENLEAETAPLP
Description: as §1

[10] = target: Delta Opioid (Homo sapiens, UniProt P41143); test: Radioligand binding selectivity; conditions: Delta Opioid; read-out: Ki
Chain of Delta Opioid (P41143 whole entry): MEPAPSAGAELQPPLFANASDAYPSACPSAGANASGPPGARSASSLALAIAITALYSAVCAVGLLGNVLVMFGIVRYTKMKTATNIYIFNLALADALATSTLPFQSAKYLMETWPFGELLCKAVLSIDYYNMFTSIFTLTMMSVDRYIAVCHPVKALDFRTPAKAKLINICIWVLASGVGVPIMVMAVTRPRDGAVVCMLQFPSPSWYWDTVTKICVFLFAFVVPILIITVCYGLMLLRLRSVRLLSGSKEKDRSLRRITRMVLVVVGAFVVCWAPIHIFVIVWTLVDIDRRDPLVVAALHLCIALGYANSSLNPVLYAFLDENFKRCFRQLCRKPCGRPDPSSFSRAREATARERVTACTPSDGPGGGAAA
Description: as §1

[11] = wild type mice, oral gavage 30 min. prior to food, food intake 1 hr

With `Cc1nn(-c2c(F)cccc2C(N)=O)cc1CN1CCC2(CC1)OCC(F)(F)c1cc(F)sc12.O=C(O)C(O)C(O)C(=O)O` [Example 18, 3-fluoro-2-[3-methyl-4-[(2,4,4-trifluorospiro[5H-thieno[2,3-c]pyran-7,4′-piperidine]-1′-yl)methyl]pyrazol-1-yl]benzamide (L)-Tartrate] the Glutathione conjugate formation [1] was “No”.

In the case of `Cc1cccc2c1CC[C@@H](CN1CCC(c3c(Cl)cccc3Cl)CC1)C[C@H]2O` [SB612111, (−)-cis-1-methyl-7-[[4-(2,6-dichlorophenyl)piperidin-1-yl]methyl]-6,7,8,9-tetrahydro-5H-benzocyclohepten-5-ol, reference compound], the receptor occupancy at 30 mg/kg ([2]; iv, intravenously 30 mg/kg 1 hr. prior to RO Tracer, positive control) is reported as about 100%.

With `Cc1nn(-c2c(F)cccc2C(N)=O)cc1CN1CCC2(CC1)OCCc1c2sc(F)c1F.O=C(O)C(O)C(O)C(=O)O` [3-fluoro-2-[4-[(2,3-difluorospiro[4,5-dihydrothieno[2,3-c]pyran-7,4′-piperidine]-1′-yl)methyl]-3-methyl-pyrazol-1-yl]benzamide (L) Tartrate, reference compound] the Glutathione conjugate formation [1] was “Yes”.

For `Clc1cccc(N2CCNCC2)c1` [mCPP, meta-chlorophenylpiperazine, reference compound], the fasting-induced hyperphagia ([3]; ORL-1 knockout mouse strain) was “significantly reduce fasting induced hyperphagia” and the fasting-induced hyperphagia [3, 11] was “significantly reduce fasting induced hyperphagia”.

In the case of `Cc1nn(-c2c(F)cccc2C(N)=O)cc1CN1CCC2(CC1)OCCc1cc(F)sc12.O=C(O)C(O)C(O)C(=O)O` [Example 9, 3-fluoro-2-[4-[(2-fluorospiro[4,5-dihydrothieno[2,3-c]pyran-7,4′-piperidine]-1′-yl)methyl]-3-methyl-pyrazol-1-yl]benzamide (L)-Tartrate], the Glutathione conjugate formation [1] is reported as “Yes”.

For `Cc1nn(-c2c(F)cccc2-n2ccnc2C)cc1CN1CCC2(CC1)OCC(F)(F)c1cc(Cl)sc12.O=C(O)C(O)C(O)C(=O)O` [Example 47, 2-Chloro-4,4-difluoro-1′-[[1-[2-fluoro-6-(2-methylimidazol-1-yl)phenyl]-3-methyl-pyrazol-4-yl]methyl]spiro[5H-thieno[2,3-c]pyran-7,4′-piperidine] (L)-Tartrate], the receptor occupancy at 3 mg/kg [2] was 84%, the fasting-induced hyperphagia [3, 11] was “substantially block fasting-induced hyperphagia” and the Ki [4] was 0.26 nM. For the same compound, the Kb [5] was 0.15 nM.

With `CC(=O)c1cccc(F)c1-n1cc(CN2CCC3(CC2)OCC(F)(F)c2cc(Cl)sc23)c(C)n1` [Example 40, 1-(2-(4-((2′-Chloro-4′,4′-difluoro-4′,5′-dihydrospiro[piperidine-4,7′-thieno[2,3-c]pyran]-1-yl)methyl)-3-methyl-1H-pyrazol-1-yl)-3-fluorophenyl)ethanone] the “maximum effect, reduction in immobilization time” value ([6]; mFST) was 50%, the ED60 ([6]; mFST, immobility time) was 23 nM and the Ki [7] was 1080 nM. The receptor occupancy at 3 mg/kg [2] was 70%, the fasting-induced hyperphagia [3, 11] was “substantially block fasting-induced hyperphagia” and the Ki [4] was 0.25 nM. It also gave a Ki [8] of over 430 nM, a Ki [9] of over 451 nM and a Ki [10] of over 479 nM. The Kb [5] was 0.3 nM.

In the case of `CN(C)CCCN1c2ccccc2CCc2ccccc21` [imiprimine, reference compound], the immobilization time ([6]; ORL-1 knockout mice) is reported as “reduce immobilization times” and the immobilization time ([6]; wild type mice) is reported as “reduce immobilization times”.

With `Cc1nn(-c2c(F)cccc2CO)cc1CN1CCC2(CC1)OCC(F)(F)c1cc(Cl)sc12.O=C(O)C(O)C(O)C(=O)O` [Example 1, [2-[4-[(2-Chloro-4,4-difluoro-spiro[5H-thieno[2,3-c]pyran-7,4′-piperidine]-1′-yl)methyl]-3-methyl-pyrazol-1-yl]-3-fluoro-phenyl]methanol (L)-Tartrate] the fasting-induced hyperphagia [3, 11] was “substantially block fasting-induced hyperphagia”.

From patent US20120214784A1, “SPIROPIPERIDINE COMPOUNDS AS ORL-1 RECEPTOR ANTAGONISTS” (ELI LILLY AND COMPANY, priority 2009, published 2012)
